27 compounds from patent publication US7276510B2, “HIV replication inhibitors” (Janssen Pharmaceutica, Inc., priority 2000, dated 2007) can be followed below.

pIC50: −log10 of the molar value. Read-outs that look alike come from different tables or passages of the source. Some results are limits rather than exact numbers.

One series has as its system HIV-infected MT-4 cells. The experiment in a line: Inhibition of the HIV-induced cytopathic effect in MT-4 cells (MTT). Type of series: cell-based. Conditions: for SI (selectivity index, ratio of CC50 to IC50): CC50/IC50 in MT-4 cells; for pIC50: HIV-infected MT-4 cells, MTT, OD 540 nm. The protocol: (§1) A rapid, sensitive and automated assay procedure was used for the in vitro evaluation of anti-HIV agents. An […] T4-cell line, MT-4, which was previously shown (Koyanagi et al., Int. J. Cancer, 36, 445-451, 1985) to be highly susceptible to and permissive for HIV infection, served as the target cell line. Inhibition of the HIV-induced cytopathic effect was used as the end point. The viability of both HIV- and mock-infected cells was assessed spectrophotometrically via the in situ reduction of 3-(4,5-dimethylthiazol-2-yl)-2,5-diphenyltetrazolium bromide (MTT). […] The percent protection achieved by the compound in HIV-infected cells was calculated by the following formula:
(§2) [formula] whereby (ODT)HIV is the optical density measured with a given concentration of the test compound in HIV-infected cells; (ODC)HIV is the optical density measured for the control untreated HIV-infected cells; (ODC)MOCK is the optical density measured for the control untreated mock-infected cells; all optical density values were determined at 540 nm. […] The ratio of CC50 to IC50 was defined as the selectivity index (SI).
For orientation: Cytopathic effects are the visible damage that an infection or toxin causes in cultured cells.

The nature of series [1]: Cytotoxicity in mock-infected MT-4 cells (MTT). In kind it is cell-based. The settings on record: human, OD 540 nm. The protocol: as §1, §2
In the next series the test system is mock-infected MT-4 cells. The experiment in a line: Cytotoxicity in mock-infected MT-4 cells (MTT). In kind it is cell-based. Conditions: read-out: CC50 (50% cytotoxic concentration), OD 540 nm. As for the experimental part:
as §1, §2

Setting [2] is: Human immunodeficiency virus 1, MT4, read-out: IC50 (50% inhibitory concentration; dose achieving 50% protection).
Setting [3] is: read-out: IC50 (50% inhibitory concentration; dose achieving 50% protection).

Consider `COC(=O)c1cc(Oc2c(C)cc(C#N)cc2C)nc(Nc2ccc(C#N)cc2)n1` [Compound 71], for which the melting point (usually the temperature, or range, at which the solid turns liquid) is 258 to 259 °C (dec.). Also, the “SI (selectivity index, ratio of CC50 to IC50)” value in the series on HIV-infected MT-4 cells is given as greater than 3984. Also, in the series on HIV-infected MT-4 cells (setting [2]), the pIC50 was 7.60. In series [1], this compound showed a CC50 greater than 100000 nM.
With `CCOc1nc(Cc2c(Cl)cccc2Cl)nc(Nc2ccc(C#N)cc2)n1` [Compound 58], in the series with HIV-infected MT-4 cells (setting [3]), the pIC50 was 7.60. The CC50 in the series with mock-infected MT-4 cells worked out at 50100 nM.
The like results for `N#Cc1ccc(Nc2nc(Cc3c(Cl)cccc3Cl)nc(N3C(=O)CCC3=O)n2)cc1` [Compound 48] were, in that order, 8.10 and greater than 200000 nM.
`Cc1cc(C)c(Oc2nc(Nc3ccc(C#N)cc3)nc(C(N)=O)n2)c(C)c1` [Compound 26]: the pIC50 in the series on HIV-infected MT-4 cells (setting [3]) was 9.00. Further, in the series on mock-infected MT-4 cells, the CC50 was 2000 nM.
`COCc1cc(Oc2c(C)cc(C#N)cc2C)nc(Nc2ccc(C#N)cc2)n1` [Compound 2] gave a melting point of 203 to 204 °C. Also, in the series with HIV-infected MT-4 cells, the “SI (selectivity index, ratio of CC50 to IC50)” value is listed as 31621. In addition, the pIC50 with HIV-infected MT-4 cells (setting [2]) was 8.80. The compound also had a CC50 in series [1] of 50100 nM.
In the same order, the values of `COc1nc(Cc2c(Cl)cccc2Cl)nc(Nc2ccc(C#N)cc2)n1` [Compound 9] are 198 to 199 °C, greater than 10000, 8.00 and greater than 100000 nM.
As to `Cc1cc(Cl)cc(Cl)c1Nc1nc(Cl)nc(Nc2ccc(C#N)cc2)n1` [Compound 109], the pIC50 in the series on HIV-infected MT-4 cells (setting [3]) is 8.40. In addition, the CC50 in the series with mock-infected MT-4 cells stood at 12600 nM.
`N#Cc1ccc(Nc2nc(Cl)nc(Nc3c(Cl)cc(Cl)cc3Cl)n2)cc1` [Compound 85]: the pIC50 in the series with HIV-infected MT-4 cells (setting [3]) is 7.70. The CC50 in the series with mock-infected MT-4 cells was found to be 50100 nM.
For `N#Cc1ccc(Nc2nc(CO)cc(Oc3c(Br)cc(C#N)cc3Br)n2)cc1` [Compound 14], the “SI (selectivity index, ratio of CC50 to IC50)” value with HIV-infected MT-4 cells came to 2500. Besides, the pIC50 in the series with HIV-infected MT-4 cells (setting [2]) was 8.40. The same compound gave a CC50 in series [1] greater than 10000 nM.
For the compound `COCc1cc(Oc2c(Br)cc(C#N)cc2Br)nc(Nc2ccc(C#N)cc2)n1` [Compound 27], the pIC50 with HIV-infected MT-4 cells (setting [3]) was 8.00. Further, the CC50 in the series on mock-infected MT-4 cells was greater than 10000 nM.
With `COc1ccc(Nc2nc(Oc3c(C)cc(C#N)cc3C)cc(C(=O)N(C)C)n2)cn1` [Compound 65], in the series on HIV-infected MT-4 cells, the “SI (selectivity index, ratio of CC50 to IC50)” value was 1000. Besides, in the series with HIV-infected MT-4 cells (setting [2]), the pIC50 is 7.10. The compound further registered a CC50 in series [1] of 79400 nM.
For `N#Cc1ccc(Nc2nc(C#N)nc(Cc3c(Cl)cccc3Cl)n2)cc1` [Compound 5], the melting point fell in the range of 221 to 230 °C. For the same compound, in the series on HIV-infected MT-4 cells, the “SI (selectivity index, ratio of CC50 to IC50)” value came to 501. Moreover, the pIC50 in the series with HIV-infected MT-4 cells (setting [2]) was 7.70. Further, the CC50 in series [1] came out at 10000 nM.
`COc1ccc(Nc2nc(Oc3c(C)cc(C#N)cc3C)cc(C(N)=O)n2)cn1` [Compound 56]: the “SI (selectivity index, ratio of CC50 to IC50)” value with HIV-infected MT-4 cells was found to be 1585. Further, in the series on HIV-infected MT-4 cells (setting [2]), the pIC50 was 7.20. The same compound gave a CC50 in series [1] greater than 100000 nM.
In turn, `N#Cc1ccc(Nc2nc(Cc3c(Cl)cccc3Cl)nc(N3C(=O)COCC3=O)n2)cc1` [Compound 4] displayed a melting point of 268 to 269 °C. Moreover, the “SI (selectivity index, ratio of CC50 to IC50)” value with HIV-infected MT-4 cells is recorded as 25197. Also, the pIC50 with HIV-infected MT-4 cells (setting [2]) was 8.80. This compound came in with a CC50 in series [1] of 39800 nM.
Take `Cc1cc(C)c(Nc2nc(Nc3ccc(C#N)cc3)nc(C(N)=O)c2Br)c(C)c1` [Compound 98, 5-bromo-2-[(4-cyanophenyl)amino]-6-[(2,4,6-trimethylphenyl)amino]-4-pyrimidine carboxamide]: the “SI (selectivity index, ratio of CC50 to IC50)” value with HIV-infected MT-4 cells is given as 15861. Besides, the pIC50 with HIV-infected MT-4 cells (setting [2]) was 8.50. The same compound gave a CC50 in series [1] of 50100 nM.
In the same order, the values of `COC(=O)c1cc(Nc2c(C)cc(C)cc2C)nc(Nc2ccc(C#N)cc2)n1` [Compound 62] are 1261, 8.20 and 7940 nM.
`N#Cc1ccc(Nc2nc(Cc3c(Cl)cccc3Cl)nc(C(N)=O)n2)cc1` [Compound 38] displayed a melting point of 262 to 263 °C. In the series on HIV-infected MT-4 cells, the “SI (selectivity index, ratio of CC50 to IC50)” value was greater than 39841. In addition, the pIC50 in the series on HIV-infected MT-4 cells (setting [2]) is 8.60. Further, in series [1], the CC50 was greater than 100000 nM.
For `Cc1cc(C#N)cc(C)c1Nc1cc(C(F)(F)F)nc(Nc2ccc(C#N)cc2)n1` [Compound 33, 4-[[[6-trifluoromethyl-2-(4-cyanophenylamino)]-4-pyrimidinyl]amino]-3,5-dimethylbenzonitrile], the melting point was 249 to 251 °C. Also, the “SI (selectivity index, ratio of CC50 to IC50)” value in the series with HIV-infected MT-4 cells was found to be 1586. Also, the pIC50 in the series with HIV-infected MT-4 cells (setting [2]) is 8.50. The CC50 in series [1] came out at 5010 nM.
In the same order, the values of `COCc1cc(Nc2cc(C)c(F)cc2Cl)nc(Nc2ccc(C#N)cc2)n1` [Compound 3] are 213 to 214 °C, greater than 1996, 7.30 and greater than 100000 nM.
As for `N#Cc1ccc(Nc2nc(Cc3c(Cl)cccc3Cl)nc(N3CC(O)CO3)n2)cc1` (centres unmarked) [Compound 11], the “SI (selectivity index, ratio of CC50 to IC50)” value in the series with HIV-infected MT-4 cells is listed as 25138. Moreover, the pIC50 in the series with HIV-infected MT-4 cells (setting [2]) is 8.60. Further, the CC50 in series [1] amounted to 63100 nM.
For `COCc1nc(Nc2ccc(C#N)cc2)nc(Oc2c(C)cc(C#N)cc2C)c1Br` [Compound 12, 4-[[[5-bromo-4-(4-cyano-2,6-dimethylphenoxy)-6-methoxymethyl]-2-pyrimidinyl]amino]benzonitrile], the melting point fell in the range of 198 to 199 °C. The “SI (selectivity index, ratio of CC50 to IC50)” value in the series on HIV-infected MT-4 cells is given as greater than 25000. The pIC50 in the series with HIV-infected MT-4 cells (setting [2]) was 8.40. Further, in series [1], the CC50 was greater than 100000 nM.
With `C=CCONc1nc(Cc2c(Cl)cccc2Cl)nc(Nc2ccc(C#N)cc2)n1` [Compound 43], the “SI (selectivity index, ratio of CC50 to IC50)” value in the series with HIV-infected MT-4 cells was 3981. Moreover, the pIC50 with HIV-infected MT-4 cells (setting [2]) is 7.80. The same compound showed a CC50 in series [1] of 63100 nM.
For the compound `Cc1cc(C)c(Nc2nc(Nc3ccc(C#N)cc3)nc(C(N)=O)n2)c(C)c1` [Compound 19, 6-[(4-cyanophenyl)amino]-4-[(2,4,6-trimethylphenyl)amino]-1,3,5-triazine-2-carboxamide], the “SI (selectivity index, ratio of CC50 to IC50)” value in the series on HIV-infected MT-4 cells amounted to 3162. For the same compound, in the series on HIV-infected MT-4 cells (setting [2]), the pIC50 was 8.90. For the same compound, in series [1], the CC50 came to 3980 nM.
Turning to `CSc1nc(Nc2ccc(C#N)cc2)nc(Nc2c(C)cc(C)cc2C)n1` [Compound 20], the pIC50 with HIV-infected MT-4 cells (setting [3]) is 8.70. Also, the CC50 with mock-infected MT-4 cells came out at 3980 nM.
`CSc1nc(Cc2c(Cl)cccc2Cl)nc(Nc2ccc(C#N)cc2)n1` [Compound 7] yielded a melting point of 184 to 185 °C. For the same compound, the “SI (selectivity index, ratio of CC50 to IC50)” value in the series with HIV-infected MT-4 cells is 1990. Besides, in the series with HIV-infected MT-4 cells (setting [2]), the pIC50 is 7.70. This compound also came in with a CC50 in series [1] of 39800 nM.
Take `Cc1cc(C)c(Oc2cc(C(F)(F)F)nc(Nc3ccc(C#N)cc3)n2)c(C)c1` [Compound 25]: the pIC50 in the series on HIV-infected MT-4 cells (setting [3]) is 7.10. For the same compound, the CC50 in the series with mock-infected MT-4 cells is greater than 100000 nM.
As for `N#Cc1ccc(Nc2nc(CO)c(Br)c(Oc3c(Br)cc(C#N)cc3Br)n2)cc1` [Compound 16, 4-[[[5-bromo-4-(4-cyano-2,6-dibromophenoxy)-6-hydroxymethyl]2-pyrimidinyl]amino]benzonitrile], in the series on HIV-infected MT-4 cells, the “SI (selectivity index, ratio of CC50 to IC50)” value is reported as greater than 39841. Also, in the series with HIV-infected MT-4 cells (setting [2]), the pIC50 was 7.60. For the same compound, the CC50 in series [1] is greater than 100000 nM.
